The values that follow come from patent US20080146555A1, “Uses of Kinase Inhibitors and Compositions Thereof” (GPC Biotech, Inc, priority 2004, published 2008).

In one assay the target is T1, AMPK.
T1 construct: purified from rat-human # = U06454
Kind of assay: AMPK kinase assay. It counts as biochemical, rat. The method, then:
• 1. AMPK Reaction Buffer: 20 mM HEPES-NaOH, pH 7.0, 0.4 mM dithiothreitol, 0.01% Brij-35, with or without 300 μM AMP. • 2. SAMS Substrate Peptide (Catalog #12-355): Use 7 μl per reaction for final assay concentration of 100 μM. • 3. AMP-Activated Protein Kinase: Dilute enzyme to 2-10 mU/μl in AMPK Reaction Buffer with or without 300 μM AMP. AMP can be purchased from Sigma-Aldrich, Catalog #A1752. • 4. [γ-^32P]ATP: Stock 1 mCi/100 μl (3000 Ci/mmol, obtained from PerkinElmer, Cat. # BLU002A). Make 10 μl aliquots (100 μCi/vial). […]
• NOTE: Negative controls should be run with all reagents containing no AMP. • 1. Add 13 μl of Reaction Buffer per assay. • 2. Add 7 μl of SAMS substrate peptide [100 μM final assay concentration]. • 3. Add 10 μl of AMP-Activated Protein Kinase [20-100 mU]. • 4. Add 10 μl of the diluted [^32P]ATP mixture. • 5. Incubate for 15 minutes at 30° C. in a shaking incubator. • 6. Spot 35 μl onto the center of a 2 cm×2 cm P81 paper square. • 7. Wash the assay squares three times with 0.75% phosphoric acid for 5 minutes. • 8. Wash the assay squares once with acetone for 5 minutes. • 9. Transfer the assay squares to vial and add 5 ml scintillation cocktail. • 10. Read in scintillation counter. Compare cpm of enzyme samples to cpm of control samples that contain no enzyme (background control).

The target in a further assay is T2, CDKs.
T2 construct: IC50 range over CDK1-7; other: 6 CDKs / CDK1-7; Cdk2/his-cyclin Eshort was expressed in Sf9 cells; Cdk2/cyclin A, cdk4/cyclin D1, and cdk6/cyclin D2 were expressed in Sf9 cells
Nature of the assay: Kinase panel, CDKs (average/range). It counts as biochemical.

For the next assay, the target named is Cdk3 (Homo sapiens, UniProt Q00526). Nature of the assay: Cdk3 inhibition. Format: biochemical. The text has this: Further inhibition results for subject compounds of the invention against other CDKs and further kinases are shown in Table 5, Table II and described in Example 6.
Chain of Cdk3 (Q00526 whole entry, species assumed): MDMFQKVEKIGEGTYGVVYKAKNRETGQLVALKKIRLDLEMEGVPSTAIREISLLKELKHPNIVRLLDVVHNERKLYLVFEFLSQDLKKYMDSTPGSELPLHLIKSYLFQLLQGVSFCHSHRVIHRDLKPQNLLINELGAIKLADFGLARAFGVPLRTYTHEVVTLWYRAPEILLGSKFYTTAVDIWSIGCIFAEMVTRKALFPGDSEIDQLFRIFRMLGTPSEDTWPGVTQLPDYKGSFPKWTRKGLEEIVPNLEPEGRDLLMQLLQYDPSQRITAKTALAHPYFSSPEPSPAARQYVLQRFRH
Chain of Cdk3 (P24864 whole entry partner, species assumed): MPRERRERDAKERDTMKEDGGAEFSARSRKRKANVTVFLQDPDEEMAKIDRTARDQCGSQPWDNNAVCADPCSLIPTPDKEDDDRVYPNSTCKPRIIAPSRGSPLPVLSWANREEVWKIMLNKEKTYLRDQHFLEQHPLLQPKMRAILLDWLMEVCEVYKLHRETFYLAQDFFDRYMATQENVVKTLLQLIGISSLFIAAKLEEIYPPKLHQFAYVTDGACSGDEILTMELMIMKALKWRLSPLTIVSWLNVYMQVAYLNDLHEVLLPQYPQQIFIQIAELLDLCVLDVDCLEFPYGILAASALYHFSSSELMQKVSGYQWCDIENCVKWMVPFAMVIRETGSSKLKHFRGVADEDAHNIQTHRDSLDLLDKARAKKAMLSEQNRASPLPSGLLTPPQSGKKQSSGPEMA
Table 3, Table 4, Table 5 and Table II show the results obtained for inhibition of a broad range of such kinases for subject compounds of the invention.

The target of the next assay is T3, JNK2α2 (Homo sapiens, UniProt P45984).
T3 construct: purchased Upstate 14-329
T3 sequence (P45984 whole entry): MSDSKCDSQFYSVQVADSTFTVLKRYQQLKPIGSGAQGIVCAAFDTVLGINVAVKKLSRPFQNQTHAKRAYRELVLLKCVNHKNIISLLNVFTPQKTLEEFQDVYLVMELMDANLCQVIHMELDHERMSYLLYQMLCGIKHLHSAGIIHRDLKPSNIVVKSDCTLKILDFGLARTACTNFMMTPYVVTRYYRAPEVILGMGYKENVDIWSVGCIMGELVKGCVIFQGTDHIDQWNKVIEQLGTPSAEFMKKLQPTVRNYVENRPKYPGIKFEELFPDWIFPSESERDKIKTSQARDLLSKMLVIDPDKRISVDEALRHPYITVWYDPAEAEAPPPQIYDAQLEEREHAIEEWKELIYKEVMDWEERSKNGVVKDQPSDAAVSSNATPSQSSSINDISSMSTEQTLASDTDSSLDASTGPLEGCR
Kind of assay: JNK2α2 kinase assay. It counts as biochemical. The method, then: • 1. 10× Reaction Buffer: 500 mM Tris-HCl, pH 7.5, 1 mM EGTA, 1% 2-mercaptoethanol. • 2. ATF2 (amino acids 19-69) (Catalog #12-367): Prepare a 30 μM stock. Use 2.5 μl per assay point for a final concentration of 3 μM per assay. • 3. JNK2α2/SAPK1a, active: Dilute to 4-40 ng/μl with 1× Reaction Buffer containing 0.03% Brij-35. Use 2.5 μl per assay point. • 4. […] [γ-^32P]ATP: Stock 1 mCi/100 μl (3000 Ci/mmol, obtained from PerkinElmer, Catalog #BLU002A). Make 10 μl aliquots (100 μCi/vial). Before starting the assay, dilute the Magnesium/ATP Cocktail 1:1 with sterile, distilled water. Then dilute an aliquot of [γ-^32P]ATP to 1 μCi/μl with 90 μl of the diluted Magnesium/ATP Cocktail. […]
• 1. Add 2.5 μl of 10× Reaction Buffer to a microcentrifuge tube. • 2. Add 2.5 μl […] of ATF2 (amino acids 19-69). • 3. Add 2.5 μl (10-100 ng) of JNK2α2/SAPK1a, active. • 4. Add 7.5 μl of sterile, distilled water. • 5. Add 10 μl of the diluted [γ-^32P]ATP solution. • 6. Incubate with agitation for 10 minutes at 30° C. • 7. Transfer a 20 μl aliquot onto the center of a 2 cm×2 cm P81 paper square (Catalog #20-134). • 8. Wash the paper squares three times with 0.75% phosphoric acid for 5 minutes. • 9. Wash the paper squares once for 5 minutes with acetone. • 10. Transfer the paper squares to a scintillation vial and add 5 ml scintillation cocktail. • 11. Read in scintillation counter. Compare the cpm of enzyme samples to the cpm of control samples that contain no enzyme (background control).

In assay [1] the test system is KU812 leukemia cells (Bcr-Abl). Nature of the assay: Proliferation of KU812 cells, calcein assay by flow cytometry. It counts as cell-based. As to conditions: Homo sapiens, KU812, 72 h, read-out: KU812 cells IC50 (proliferation). The procedure: The proliferation of KU812 cells was assayed using the calcein viability assay described in Assay 3 but adapted for quantification by flow cytometry, briefly as follows: cells were recovered from sub-confluent plates by trypsinization and re-plated at a density of 1,000 cells/well in 24 well plates and incubated 24 hours to allow adherence. The media (RPMI-1640 supplemented with 10% FCS and Pen/Strep) was aspirated from each well and replaced with media containing the compound at a range from 0 to 0.250 μM. The plates were incubated for 3 days corresponding to approximately three cell cycles. Cellular viability was determined with the Calcein AM assay as follows. The cells were washed twice in PBS and incubated with 5 μM Calcein AM/PBS for 75 minutes before determining fluorescent units with a fluorescent plate reader. The Calcein AM assay was adapted for the flow cytometer by including an additional 1:16,000 dilution of the Calcein AM in PBS of which 200 ul was added to each sample of cells.

Where [2] appears, read: enzyme purified from rat, read-out: PRKAA2 (AMPK) Inhibition (IC50).
[3] abbreviates: 6 CDKs / CDK1-7, read-out: average IC50 for CDKs.
[4] abbreviates: kinase panel, 10 μM ATP, read-out: JNK2α2 IC50.
Where [5] appears, read: read-out: MAPK9 Inhibition (IC50).

Each structure is given as a SMILES string. Several values for one entry are separate records, joined by “and”; a condition that tells them apart may be missing. Identical values can stand only once. Counter-ions that a name gives are not always drawn. Like-named read-outs stand apart in the source and are kept apart here. Where only a bound is given, the exact number is not on record here.

As for `CC(C)N1CCN(C(=O)COc2ccc(-c3n[nH]c4c3C(=O)c3c(NC(=O)NN5CCOCC5)cccc3-4)cc2)CC1` [Compound A37], the IC50 at AMPK (setting [2]) was less than 100 nM; on CDKs (setting [3]) it was ~42 nM and 42 nM; on CDKs (read-out: IC50 range over CDK1-7) it was 3 to 155 nM; on Cdk3, less than 5 nM; on JNK2α2 (setting [4]) it was 10 to 100 nM; on JNK2α2 (setting [5]), less than 50 nM. For the same compound, the IC50 in assay [1] was 85 nM.
Turning to `COCCN1CCN(Cc2ccc(-c3n[nH]c4c3C(=O)c3c(NC(=O)NN5CCOCC5)cccc3-4)cc2)CC1` [Compound B16, N-[3-(4-{[4-(2-methoxyethyl)piperazinyl]methyl}phenyl)-4-oxoindeno[2,3-d]pyrazol-5-yl](morpholin-4-ylamino)carboxamide dihydrochloride], the IC50 was less than 50 nM on AMPK (setting [2]); less than 100 nM at AMPK (kinase panel, 10 μM ATP, read-out: AMPK IC50); roughly 17 nM at CDKs (setting [3]); less than 5 nM at Cdk3; less than 100 nM on JNK2α2 (setting [4]); less than 100 nM at JNK2α2 (setting [5]). In addition, the IC50 in assay [1] (3 days, calcein AM, flow cytometry) is 54 nM.
